Results published in patent publication US20070128217A1 (priority 2003, published 2007).

Assays:
[1] = system: antibodies in sera from SARS patients (sera 1a, 1b, 2, 6, 37, 62, London, SARS-yellow, SARS-green); format: binding, human; design: Binding of serum 6 to linear peptides of protein X1 of SARS-CoV Urbani / Binding of serum 37 to linear peptides of protein X1 of SARS-CoV Urbani / Binding of serum 6 to looped/cyclic peptide (PEPSCAN-ELISA) / Binding of serum 37 to looped/cyclic peptide (PEPSCAN-ELISA) / Binding of serum 37 to looped/cyclic peptides of protein X1 of SARS-CoV Urbani / Binding of serum 6 to linear peptides of protein X2 / Binding of serum 37 to linear peptides of protein X2 / Binding of serum 37 to looped/cyclic peptides of protein X2 of SARS-CoV Urbani / Binding of serum 6 to linear peptides of protein M of SARS-CoV Urbani / Binding of serum 37 to linear peptides of protein M of SARS-CoV Urbani / Binding of serum 6 to looped/cyclic peptides of protein M of SARS-CoV Urbani / Binding of serum 37 to looped/cyclic peptides of protein M of SARS-CoV Urbani / Binding of serum 6 to linear peptides of protein X3 of SARS-CoV Urbani / Binding of serum 37 to linear peptides of protein X3 of SARS-CoV Urbani / Binding of serum 37 to looped/cyclic peptides of protein X3 of SARS-CoV Urbani / Binding of serum 6 to linear peptides of protein X4 of SARS-CoV Urbani / Binding of serum 37 to linear peptides of protein X4 of SARS-CoV Urbani / Binding of serum 37 to looped/cyclic peptides of protein X4 of SARS-CoV Urbani / Binding of serum 6 to linear peptides of protein X5 of SARS-CoV Urbani / Binding of serum 37 to linear peptides of protein X5 of SARS-CoV Urbani / Binding of serum 37 to looped/cyclic peptides of protein X5 of SARS-CoV Urbani / Binding of serum 6 to linear peptides of protein N of SARS-CoV Urbani / Binding of serum 37 to linear peptides of protein N of SARS-CoV Urbani / Binding of serum 6 to linear peptide (PEPSCAN-ELISA) / Binding of serum 1a to looped/cyclic peptides of protein N of SARS-CoV Urbani / Binding of serum 1b to looped/cyclic peptides of protein N of SARS-CoV Urbani / Binding of serum 2 to looped/cyclic peptides of protein N of SARS-CoV Urbani / Binding of serum 6 to looped/cyclic peptides of protein N of SARS-CoV Urbani / Binding of serum 37 to looped/cyclic peptides of protein N of SARS-CoV Urbani / Binding of serum 62 to looped/cyclic peptides of protein N of SARS-CoV Urbani / Binding of serum London to looped/cyclic peptides of protein N of SARS-CoV Urbani / Binding of serum SARS-green to looped/cyclic peptides of protein N of SARS-CoV Urbani: unit not given here
[2] = system: control sera (pooled serum of ten healthy LUMC hospital workers; commercial negative donor pooled serum from the Dutch bloodbank); format: binding, human; design: Binding of Control serum LUMC to linear peptides / Binding of Control serum Blood-bank to linear peptides / Binding of Control serum LUMC to looped peptides / Binding of Control Serum Blood-Bank to Looped peptides / Binding of Control serum LUMC to linear peptides of the protein M of SARS-CoV Urbani / Binding of Control serum Blood-bank to linear peptides of the protein M of SARS-CoV Urbani / Binding of Control serum LUMC to looped peptides of the protein M of SARS-CoV Urbani / Binding of Control Serum Blood-Bank to Looped peptides of the protein M of SARS-CoV Urbani: unit not given here
[3] = system: rabbit serum obtained by immunizing a rabbit with the SARS-CoV strain Frankfurt 1; format: binding; design: Binding of a rabbit serum to linear peptides / Binding of a rabbit serum to looped peptides / Rabbit serum linear peptides / Rabbit serum looped peptides / Binding of a rabbit serum to linear peptides of protein N of SARS-CoV Urbani (Rabbit serum linear peptides) / Binding of a rabbit serum to looped/cyclic peptides of protein N of SARS-CoV Urbani (Rabbit serum looped peptides): unit not given here

IVTRPLMESELVIGA
Binding of serum 1a to linear peptides of protein M of SARS-CoV Urbani [1]: 0.8 | Binding of serum 1b to linear peptides of protein M of SARS-CoV Urbani [1]: 0.7 | Binding of serum 2 to linear peptides of protein M of SARS-CoV Urbani [1]: 0.6 | Binding of serum 6 to linear peptides of protein M of SARS-CoV Urbani [1]: 0.4 | Binding of serum 37 to linear peptides of protein M of SARS-CoV Urbani [1]: 0.6 | Binding of serum 62 to linear peptides of protein M of SARS-CoV Urbani [1]: 0.6 | Binding of serum London to linear peptides of protein M of SARS-CoV Urbani [1]: 0.3 | Binding of serum SARS-green to linear peptides of protein M of SARS-CoV Urbani [1]: 0.6 | Binding of serum SARS-yellow to linear peptides of protein M of SARS-CoV Urbani [1]: 0.5 | Recognition of the peptide by sera of SARS-CoV infected individuals, and form (linear, looped/cyclic) in which it is recognized [1]: recognized in looped/cyclic form | Binding of Control Serum Blood-Bank to Looped peptides of the protein M of SARS-CoV Urbani [2]: 0.9 | Binding of Control serum Blood-bank to linear peptides of the protein M of SARS-CoV Urbani [2]: 0.7 | Binding of Control serum LUMC to linear peptides of the protein M of SARS-CoV Urbani [2]: 0.8 | Binding of Control serum LUMC to looped peptides of the protein M of SARS-CoV Urbani [2]: 1.0 | Rabbit serum linear peptides [3]: 0.1 | Rabbit serum looped peptides [3]: 0.4

LVRYNTRGNTYSTAW
Binding of serum 1a to linear peptides of protein X5 of SARS-CoV Urbani [1]: 0.7 | Binding of serum 1a to looped/cyclic peptides of protein X5 of SARS-CoV Urbani [1]: 0.4 | Binding of serum 1b to linear peptides of protein X5 of SARS-CoV Urbani [1]: 0.4 | Binding of serum 1b to looped/cyclic peptides of protein X5 of SARS-CoV Urbani [1]: 0.2 | Binding of serum 2 to linear peptides of protein X5 of SARS-CoV Urbani [1]: 0.5 | Binding of serum 2 to looped/cyclic peptides of protein X5 of SARS-CoV Urbani [1]: 0.4 | Binding of serum 6 to linear peptides of protein X5 of SARS-CoV Urbani [1]: 0.4 | Binding of serum 6 to looped/cyclic peptides of protein X5 of SARS-CoV Urbani [1]: 0.3 | Binding of serum 37 to linear peptides of protein X5 of SARS-CoV Urbani [1]: 0.6 | Binding of serum 37 to looped/cyclic peptides of protein X5 of SARS-CoV Urbani [1]: 0.5 | Binding of serum 62 to linear peptides of protein X5 of SARS-CoV Urbani [1]: 0.7 | Binding of serum 62 to looped/cyclic peptides of protein X5 of SARS-CoV Urbani [1]: 0.6 | Binding of serum London to linear peptides of protein X5 of SARS-CoV Urbani [1]: 0.6 | Binding of serum London to looped/cyclic peptides of protein X5 of SARS-CoV Urbani [1]: 0.2 | Binding of serum SARS-green to linear peptides of protein X5 of SARS-CoV Urbani [1]: 0.4 | Binding of serum SARS-green to looped/cyclic peptides of protein X5 of SARS-CoV Urbani [1]: 0.3 | Binding of serum SARS-yellow to linear peptides of protein X5 of SARS-CoV Urbani [1]: 0.3 | Binding of serum SARS-yellow to looped/cyclic peptides of protein X5 of SARS-CoV Urbani [1]: 0.5 | Binding of Control Serum Blood-Bank to Looped peptides [2]: 0.3 | Binding of Control serum Blood-bank to linear peptides [2]: 0.8 | Binding of Control serum LUMC to linear peptides [2]: 0.5 | Binding of Control serum LUMC to looped peptides [2]: 0.5 | Rabbit serum linear peptides [3]: 0.7 | Rabbit serum looped peptides [3]: 0.3

PKLFIRQEEVQQELY
Binding of serum 1a to linear peptides of protein X4 of SARS-CoV Urbani [1]: 0.7 | Binding of serum 1a to looped/cyclic peptides of protein X4 of SARS-CoV Urbani [1]: 0.8 | Binding of serum 1b to linear peptides of protein X4 of SARS-CoV Urbani [1]: 0.6 | Binding of serum 1b to looped/cyclic peptides of protein X4 of SARS-CoV Urbani [1]: 0.6 | Binding of serum 2 to linear peptides of protein X4 of SARS-CoV Urbani [1]: 0.4 | Binding of serum 2 to looped/cyclic peptides of protein X4 of SARS-CoV Urbani [1]: 0.5 | Binding of serum 6 to linear peptides of protein X4 of SARS-CoV Urbani [1]: 0.5 | Binding of serum 6 to looped/cyclic peptides of protein X4 of SARS-CoV Urbani [1]: 0.5 | Binding of serum 37 to linear peptides of protein X4 of SARS-CoV Urbani [1]: 0.8 | Binding of serum 37 to looped/cyclic peptides of protein X4 of SARS-CoV Urbani [1]: 0.7 | Binding of serum 62 to linear peptides of protein X4 of SARS-CoV Urbani [1]: 0.8 | Binding of serum 62 to looped/cyclic peptides of protein X4 of SARS-CoV Urbani [1]: 0.6 | Binding of serum London to linear peptides of protein X4 of SARS-CoV Urbani [1]: 0.8 | Binding of serum London to looped/cyclic peptides of protein X4 of SARS-CoV Urbani [1]: 0.4 | Binding of serum SARS-green to linear peptides of protein X4 of SARS-CoV Urbani [1]: 0.7 | Binding of serum SARS-green to looped/cyclic peptides of protein X4 of SARS-CoV Urbani [1]: 0.5 | Binding of serum SARS-yellow to linear peptides of protein X4 of SARS-CoV Urbani [1]: 0.8 | Binding of serum SARS-yellow to looped/cyclic peptides of protein X4 of SARS-CoV Urbani [1]: 0.4 | Binding of Control Serum Blood-Bank to Looped peptides [2]: 0.6 | Binding of Control serum Blood-bank to linear peptides [2]: 0.7 | Binding of Control serum LUMC to linear peptides [2]: 0.5 | Binding of Control serum LUMC to looped peptides [2]: 0.7 | Rabbit serum linear peptides [3]: 0.4 | Rabbit serum looped peptides [3]: 0.4
